The target in this assay is T1, oxidase-type xanthine oxidoreductase (from buttermilk) (Bos taurus, UniProt P80457).
T1 construct: purchased Calbiochem Novabiochem Corp; host or cells: buttermilk (natural source)
Description: xanthine oxidase inhibitory activity (change of absorbance at 290 nm). Type of assay: biochemical. Conditions: xanthine substrate, read-out: Inhibitor Activity. On the procedure: Test compound was dissolved in DMSO (manufactured by Sigma Co.) to prepare a 20 mM solution. The solution was adjusted to an optimal concentration and used for the testing.
This evaluation was carried out by measuring oxidase-type xanthine oxidoreductase activity. Concretely, a xanthine (manufactured by Sigma Co.) solution was prepared at 10 mM using a 20 mM sodium hydroxide solution and then mixed with 100 mM phosphate buffer to adjusted to 30 μM. 75 μL of the solution was added to each well of the 96-well plate. The test compound diluted with DMSO at 100 times of a final concentration was added to each well at 1.5 μL per well. […] Immediately after mixing, the change of absorbance at 290 nm was measured for 5 minutes. The enzyme activity of DMSO solution without test compound was used as 100% control, and the inhibitory rate of the test compounds was calculated. Fifty percent inhibitory concentration of the test compounds on the oxidase-type xanthine oxidoreductase activity was calculated by fitting to the dose-response curve.

Structures are written as SMILES. A value given as a limit tells only on which side of the number the result lay.

T1 sequence (P80457 whole entry): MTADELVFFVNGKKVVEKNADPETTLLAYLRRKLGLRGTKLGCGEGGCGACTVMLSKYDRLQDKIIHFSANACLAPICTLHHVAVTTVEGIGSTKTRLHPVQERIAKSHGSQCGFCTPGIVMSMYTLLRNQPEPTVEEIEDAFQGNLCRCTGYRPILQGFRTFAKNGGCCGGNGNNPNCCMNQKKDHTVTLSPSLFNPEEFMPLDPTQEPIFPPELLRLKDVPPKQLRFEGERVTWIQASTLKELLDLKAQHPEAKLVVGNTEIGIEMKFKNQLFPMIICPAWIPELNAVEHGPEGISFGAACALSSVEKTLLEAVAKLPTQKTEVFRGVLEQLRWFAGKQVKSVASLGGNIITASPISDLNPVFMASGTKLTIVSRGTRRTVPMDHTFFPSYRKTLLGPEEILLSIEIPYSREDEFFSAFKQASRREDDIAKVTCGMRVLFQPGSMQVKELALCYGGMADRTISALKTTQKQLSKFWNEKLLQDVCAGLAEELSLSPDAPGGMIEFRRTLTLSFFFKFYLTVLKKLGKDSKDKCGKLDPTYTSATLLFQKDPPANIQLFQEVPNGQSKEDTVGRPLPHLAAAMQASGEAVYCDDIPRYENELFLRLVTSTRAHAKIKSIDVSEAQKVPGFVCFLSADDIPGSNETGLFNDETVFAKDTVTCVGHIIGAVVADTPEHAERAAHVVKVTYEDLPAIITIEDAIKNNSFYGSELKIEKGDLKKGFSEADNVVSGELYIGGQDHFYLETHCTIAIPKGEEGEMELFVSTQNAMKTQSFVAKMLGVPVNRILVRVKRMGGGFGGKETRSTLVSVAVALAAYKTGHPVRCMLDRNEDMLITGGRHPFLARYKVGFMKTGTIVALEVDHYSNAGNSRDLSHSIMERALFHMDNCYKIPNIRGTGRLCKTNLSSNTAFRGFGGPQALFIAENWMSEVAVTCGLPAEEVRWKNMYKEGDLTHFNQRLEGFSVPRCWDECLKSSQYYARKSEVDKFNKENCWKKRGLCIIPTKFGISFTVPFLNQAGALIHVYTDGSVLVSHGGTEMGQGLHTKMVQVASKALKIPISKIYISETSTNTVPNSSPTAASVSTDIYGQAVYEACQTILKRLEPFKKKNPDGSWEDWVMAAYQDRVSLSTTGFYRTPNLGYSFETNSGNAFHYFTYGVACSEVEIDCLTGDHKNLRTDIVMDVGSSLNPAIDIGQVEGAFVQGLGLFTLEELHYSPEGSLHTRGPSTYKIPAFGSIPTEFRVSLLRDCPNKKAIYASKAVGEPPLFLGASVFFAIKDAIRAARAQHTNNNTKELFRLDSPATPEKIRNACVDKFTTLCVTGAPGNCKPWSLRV

For `Cc1nc(-c2ccc(OCC(C)C)c(-n3ccnc3)c2)sc1C(=O)O` [Compound No. 1, 2-[3-(1H-imidazol-1-yl)-4-(2-methylpropoxy)phenyl]-4-methyl-1,3-thiazole-5-carboxylic acid], the IC50 fell in the range of 1 to 5 nM. The figure for `Cc1nc(-c2ccc(OCC(C)(C)C)c(-n3ccnc3)c2)sc1C(=O)O` [Compound No. 2, 2-[4-(2,2-dimethylpropoxy)-3-(1H-imidazol-1-yl)phenyl]-4-methyl-1,3-thiazole-5-carboxylic acid] is 5 to 10 nM. The figure for `Cc1nc(-c2ccc(OCC3CCC3)c(-n3ccnc3)c2)sc1C(=O)O` [Compound No. 3, 2-[4-(cyclobutylmethoxy)-3-(1H-imidazol-1-yl)phenyl]-4-methyl-1,3-thiazole-5-carboxylic acid] is 5 to 10 nM; for `Cc1nc(-c2ccc(OCC3CCCC3)c(-n3ccnc3)c2)sc1C(=O)O` [Compound No. 4, 2-[4-(cyclopentylmethoxy)-3-(1H-imidazol-1-yl)phenyl]-4-methyl-1,3-thiazole-5-carboxylic acid] it is 5 to 10 nM; for `Cc1nc(-c2ccc(OC3CCCC3)c(-n3ccnc3)c2)sc1C(=O)O` [Compound No. 5, 2-[4-(cyclopentyloxy)-3-(1H-imidazol-1-yl)phenyl]-4-methyl-1,3-thiazole-5-carboxylic acid] it is 5 to 10 nM. The figure for `Cc1nc(-c2ccc(Oc3ccccc3)c(-n3ccnc3)c2)sc1C(=O)O` [Compound No. 7, 2-[3-(1H-imidazol-1-yl)-4-phenoxyphenyl]-4-methyl-1,3-thiazole-5-carboxylic acid] is above 10 nM; for `Cc1nc(-c2ccc(Oc3ccccc3F)c(-n3ccnc3)c2)sc1C(=O)O` [Compound No. 8, 2-[4-(2-fluorophenoxy)-3-(1H-imidazol-1-yl)phenyl]-4-methyl-1,3-thiazole-5-carboxylic acid] it is above 10 nM. With `Cc1nc(-c2ccc(Oc3ccccc3)c(-n3cncn3)c2)sc1C(=O)O` [Compound No. 15], the IC50 was above 10 nM. As for `Cc1nc(-c2ccc(OC(C)C)c(-n3ccnn3)c2)sc1C(=O)O` [Compound No. 16, 4-methyl-2-[4-(propan-2-yloxy)-3-(1H-1,2,3-triazol-1-yl)phenyl]-1,3-thiazole-5-carboxylic acid], the figure is 1 to 5 nM; as for `Cc1nc(-c2ccc(OC(C)C)c(-n3cnnn3)c2)sc1C(=O)O` [Compound No. 24, 4-methyl-2-[4-(propan-2-yloxy)-3-(1H-1,2,3,4-tetrazole-1-yl)phenyl]-1,3-thiazole-5-carboxylic acid], 1 to 5 nM; as for `Cc1nc(-c2ccc(OCC(C)CO)c(-n3cnnn3)c2)sc1C(=O)O` (stereo not drawn) [Compound No. 29, 2-[4-(3-hydroxy-2-methylpropoxy)-3-(1H-1,2,3,4-tetrazol-1-yl)phenyl]-4-methyl-1,3-thiazole-5-carboxylic acid], 1 to 5 nM. `Cc1nc(-c2ccc(OCC(C)(C)O)c(-n3cnnn3)c2)sc1C(=O)O` [Compound No. 30, 2-[4-(2-hydroxy-2-methylpropoxy)-3-(1H-1,2,3,4-tetrazol-1-yl)phenyl]-4-methyl-1,3-thiazole-5-carboxylic acid]: the IC50 was 1 to 5 nM. The figure for `Cc1nc(-c2ccc(Oc3ccccc3)c(-n3cnnn3)c2)sc1C(=O)O` [Compound No. 33, 4-methyl-2-[4-phenoxy-3-(1H-1,2,3,4-tetrazol-1-yl)phenyl]-1,3 thiazole-5-carboxylic acid] is 1 to 5 nM; for `Cc1nc(-c2ccc(SCC(C)C)c(-n3cnnn3)c2)sc1C(=O)O` [Compound No. 49, 4-methyl-2-{4-[(2-methylpropyl)sulfanyl]-3-(1H-1,2,3,4-tetrazol-1-yl)phenyl}-1,3-thiazole-5-carboxylic acid] it is 1 to 5 nM. As for `CCN(CC)c1ccc(-c2nc(C)c(C(=O)O)s2)cc1-n1cnnn1` [Compound No. 52, 2-[4-(N,N-diethylamino)-3-(1H-1,2,3,4-tetrazol-1-yl)phenyl]-4-methyl-1,3-thiazole-5-carboxylic acid], the figure is 1 to 5 nM; as for `Cc1nc(-c2ccc(N3CCCC3)c(-n3cnnn3)c2)sc1C(=O)O` [Compound No. 53, 4-methyl-2-[4-(pyrrolidin-1-yl)-3-(1H-1,2,3,4-tetrazol-1-yl)phenyl]-1,3-thiazole 5-carboxylic acid], 1 to 5 nM; as for `Cc1nc(-c2ccc(OC3CCCCC3)c(-n3ccnc3)c2)sc1C(=O)O` [compound 6, 2-[4-(cyclohexyloxy)-3-[1H-imidazol-1-yl)phenyl]-4-methyl-1,3-thiazole-5-carboxylic acid], 5 to 10 nM. The figure for `Cc1nc(-c2ccc(OCC(C)C)c(-n3ccnc3C)c2)sc1C(=O)O` [compound 9, 4-methyl-2-[3-(2-methyl-1H-imidazol-1-yl)-4-(2-methylpropoxy)phenyl]-1,3-thiazole-5-carboxylic acid] is 1 to 5 nM; for `Cc1nc(-c2ccc(OCC(C)C)c(-n3nnnc3C)c2)sc1C(=O)O` [compound 10, 4-methyl-2-[3-(5-methyl-1H-1,2,3,4-tetrazol-1-yl)-4-(2-methylpropoxy)phenyl]-1,3-thiazole-5-carboxylic acid] it is 5 to 10 nM. In the case of `Cc1nc(-c2ccc(OCC(C)C)c(-n3cnc4ccccc43)c2)sc1C(=O)O` [compound 11, 2-[3-(1H-1,3-benzodiazol-1-yl)-4-(2-methylpropoxy)phenyl]-4-methyl-1,3-thiazole-5-carboxylic acid], the IC50 was in the range of 1 to 5 nM. On to `Cc1ncn(-c2cc(-c3nc(C)c(C(=O)O)s3)ccc2OCC(C)C)n1` [compound 12, 4-methyl-2-[3-(3-methyl-1H-1,2,4-triazol-1-yl)-4-(2-methylpropoxy)phenyl]-1,3-thiazole-5-carboxylic acid], for which the IC50 was in the range of 1 to 5 nM. In the case of `Cc1nc(-c2ccc(OCC(C)C)c(-n3cncn3)c2)sc1C(=O)O` [compound 13, 4-methyl-2-[4-(2-methylpropoxy)-3-(1H-1,2,4-triazol-1-yl)phenyl]-1,3-thiazole-5-carboxylic acid], the IC50 fell in the range of 1 to 5 nM. As for `Cc1nc(-c2ccc(OCC(C)C)c(-n3ncnc3C)c2)sc1C(=O)O` [compound 14, 4-methyl-2-[3-(5-methyl-1H-1,2,4-triazol-1-yl)-4-(2-methylpropoxy)phenyl]-1,3-thiazole-5-carboxylic acid], the figure is 1 to 5 nM.

On to `Cc1nc(-c2ccc(OCC(C)C)c(-n3ccnn3)c2)sc1C(=O)O` [compound 17, 4-methyl-2-[4-(2-methylpropoxy)-3-(1H-1,2,3-triazol-1-yl)phenyl]-1,3-thiazole-5-carboxylic acid], for which the IC50 lay within 1 to 5 nM.

For `Cc1nc(-c2ccc(OCC(C)(C)C)c(-n3ccnn3)c2)sc1C(=O)O` [compound 18, 2-[4-(2,2-dimethylpropoxy)-3-(1H-1,2,3-triazol-1-yl)phenyl]-4-methyl-1,3-thiazole-5-carboxylic acid], the IC50 lay within 1 to 5 nM. The figure for `Cc1nc(-c2ccc(OCC3CCC3)c(-n3ccnn3)c2)sc1C(=O)O` [compound 19, 2-[4-(cyclobutylmethoxy)-3-(1H-1,2,3-triazol-1-yl)phenyl]-4-methyl-1,3-thiazole-5-carboxylic acid] is 1 to 5 nM; for `CC(C)Oc1ccc(-c2ncc(C(=O)O)s2)cc1-n1ccnn1` [compound 20, 2-[4-(propan-2-yloxy)-3-(1H-1,2,3-triazol-1-yl)phenyl]-1,3-thiazole-5-carboxylic acid] it is 1 to 5 nM.

The values are drawn from patent publication US9388174B2, “Azole benzene derivative” (TEIJIN PHARMA LIMITED, priority 2013, dated 2016).
